According to US20210308103A1, “TASK-1 INHIBITORS FOR TREATMENT OF ATRIAL ARRHYTHMIAS” (Universität Heidelberg, priority 2018, published 2021):
pIC50: −log10 of the molar value. Where two headings read alike, the source gives them in different places.

What was measured:
[1] = test system: pigs; test: Adverse effects observed in pigs on overdosing; type: in vivo, pig; details: pigs 40-60 kg body weight
Procedure: Adverse effects observed in pigs. […] These effects were not observed when an overdose of ketodoxapram was administered.

[2] = in vivo; details: pig
Excerpt: FIG. 4: Quantification of doxapram and ketodoxapram in porcine tissue samples. A) doxapram and ketodoxapram were quantified in brain tissue samples (CNS) and plasma samples of two pigs; B) Concentrations of doxapram and ketodoxapram in brain tissues of pigs treated with doxapram, which was metabolized to ketodoxapram.
FIG. 6: Correlation between plasma concentration and brain concentration of doxapram and its metabolite ketodoxapram in pigs after intravenous administration of doxapram; pig numbers and their group status are indicated (SR: sinus rhythm; AF: atrial fibrillation).
FIG. 7: Correlation between plasma concentration and brain concentration of ketodoxapram in pigs after intravenous administration of ketodoxapram; pig numbers and their group status are indicated (AF: atrial fibrillation).
FIG. 8: Short-term distribution of doxapram and its metabolite ketodoxapram in pigs 30 min after administration of doxapram; pig numbers and their group status are indicated (SR: sinus rhythm).
Quantification of ketodoxapram and doxapram in porcine tissues. In two pigs, doxapram and ketodoxapram were administered and quantified in brain tissue samples (CNS) and plasma samples (FIG. 4A).
(§1) Analysis of doxapram and ketodoxapram in tissues. Mass spectrometry, in particular liquid chromatography tandem-mass spectrometry (LC-MS/MS) with deuterated internal standard, was used to quantify the concentrations of doxapram and ketodoxapram in tissue samples and plasma.
Pigs with sinus rhythm or atrial fibrillation were treated with intravenous doxapram and plasma and brain samples were taken essentially simultaneously.
In two pigs, doxapram and ketodoxapram concentrations were determined in brain and plasma 30 min after intravenous administration.

[3] = Plasma pharmacokinetics in pigs after intravenous doxapram; type: in vivo, pig; details: for Tmax / AUC(0-inf) / Cmax / AUC / half-life: 1.8 mg/kg body weight; for Tmax / AUCextra / AUC(0-inf) / Cmax / AUC / half-life: intravenous bolus of doxapram; for AUC(0-inf) / Cmax / AUC / half-life: pig, plasma, iv; for AUC: read-out: AUC0-n
Excerpt: FIG. 3: Pharmacokinetics of doxapram and ketodoxapram in pigs after intravenous administration. Concentration of doxapram and ketodoxapram, respectively, as measured in plasma samples taken at the indicated time points.
Pharmacokinetics of doxapram and ketodoxapram.
as §1
Doxapram was administered as an intravenous bolus to pigs and plasma concentration was determined over time.

[4] = target: TASK-1 (Homo sapiens, UniProt O14649); test: TASK-1 current inhibition, voltage clamp in Xenopus laevis oocytes (human channel); type: cell-based; set-up: expressed in transfected cells; host or cells: Xenopus laevis oocytes; details: for Competition between ketodoxapram and doxapram at TASK-1: both compounds present, FIG. 1E; for pIC50: voltage clamp, FIG. 1B/1C
Chain of TASK-1 (O14649 whole entry): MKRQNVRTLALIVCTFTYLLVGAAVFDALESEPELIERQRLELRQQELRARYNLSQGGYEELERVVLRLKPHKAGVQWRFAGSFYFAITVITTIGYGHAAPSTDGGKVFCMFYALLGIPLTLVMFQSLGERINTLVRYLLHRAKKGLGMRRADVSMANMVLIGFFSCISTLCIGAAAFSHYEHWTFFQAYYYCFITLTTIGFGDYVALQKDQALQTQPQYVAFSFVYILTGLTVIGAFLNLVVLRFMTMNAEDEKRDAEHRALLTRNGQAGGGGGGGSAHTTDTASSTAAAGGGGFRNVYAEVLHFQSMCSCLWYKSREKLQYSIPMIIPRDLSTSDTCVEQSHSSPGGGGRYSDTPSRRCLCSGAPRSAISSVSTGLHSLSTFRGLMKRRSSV
Excerpt: FIG. 1: Inhibitory effects of doxapram and ketodoxapram on TASK-1 K-ion channels, recorded by voltage-clamp measurements in Xenopus laevis oocytes. A) Concentration-effect curve for doxapram on porcine TASK-1; B) Concentration-effect curve for doxapram on human TASK-1; C) Concentration-effect curve for ketodoxapram on human TASK-1; […] E) Inhibition of TASK-1 by doxapram, ketodoxapnram, and mixtures thereof. Concentration-response curves for ketodoxapram and doxapram. TASK-1 current inhibition was recorded by voltage clamp measurements in Xenopus laevis oocytes according to standard protocols. […] The ion channels TASK-1 ([…].1), Kv4.3, Kv1.5, Kv2.1, Kir3.1/4, Kv1.4 are predominantly expressed in the atrial myocardium. The ion channel TASK-3 ([…].1) is not expressed in the human myocardium but structurally related to TASK-1 (Schmidt C et al. (2015), Circulation 132(2): 82). Ion channel current inhibition was measured in Xenopus laevis oocytes (FIG. 1 D)). […] To test for competition between ketodoxapram and doxapram, concentration-response curves were determined by measuring TASK-1 current inhibition recorded by voltage clamp measurements in Xenopus laevis oocytes.

[5] = test system: pigs with persistent atrial fibrillation; test: Cardioversion of pacing-induced persistent atrial fibrillation in pigs; type: in vivo, pig
Procedure: Doxapram and ketodoxapram were successfully applied for cardioversion in pigs. To induce atrial fibrillation in pigs, at first, pacemakers were implanted. Atrial fibrillation was induced by atrial rapid pacing. […] On average, pharmacological cardioversion to sinus rhythm was successful 3 minutes after injection of doxapram or ketodoxapram.

[6] = Plasma trough concentrations in pigs during long-term administration; type: in vivo, pig; details: repeated intravenous doses of doxapram over 18 days, FIG. 9
Procedure: FIG. 9: Plasma trough concentrations of doxapram and its metabolite ketodoxapram in pigs during repetitive intravenous administration of doxapram over 18 days.
FIG. 10: Plasma concentrations of ketodoxapram in pigs during long-term administration of ketodoxapram.
Pigs were administered repeated doses of doxapram over a period of several days.

[7] = target: T1, Kv1.5 (Homo sapiens, UniProt P22460); test: Ion channel current inhibition in Xenopus laevis oocytes, Kv1.5; type: cell-based; details: FIG. 1D
T1 construct: expressed in transfected cells; host or cells: Xenopus laevis oocytes
T1 sequence (P22460 whole entry): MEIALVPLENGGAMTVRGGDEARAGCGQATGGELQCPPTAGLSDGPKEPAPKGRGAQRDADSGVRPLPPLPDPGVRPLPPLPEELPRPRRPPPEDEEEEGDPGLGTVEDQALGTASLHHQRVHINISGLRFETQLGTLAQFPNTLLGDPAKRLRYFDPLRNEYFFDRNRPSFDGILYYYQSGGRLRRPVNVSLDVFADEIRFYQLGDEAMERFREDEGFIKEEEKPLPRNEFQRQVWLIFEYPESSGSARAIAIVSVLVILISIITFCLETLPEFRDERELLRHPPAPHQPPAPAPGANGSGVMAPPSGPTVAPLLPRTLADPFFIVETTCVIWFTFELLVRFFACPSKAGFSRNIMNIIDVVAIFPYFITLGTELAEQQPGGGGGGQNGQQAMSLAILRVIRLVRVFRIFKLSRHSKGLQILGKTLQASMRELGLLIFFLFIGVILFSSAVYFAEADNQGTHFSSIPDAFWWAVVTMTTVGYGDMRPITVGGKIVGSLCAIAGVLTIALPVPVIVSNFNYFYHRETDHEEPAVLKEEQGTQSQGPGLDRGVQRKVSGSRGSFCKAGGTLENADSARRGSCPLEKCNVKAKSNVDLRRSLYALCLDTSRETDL
Excerpt: FIG. 1: Inhibitory effects of doxapram and ketodoxapram on TASK-1 K-ion channels, recorded by voltage-clamp measurements in Xenopus laevis oocytes. A) Concentration-effect curve for doxapram on porcine TASK-1; B) Concentration-effect curve for doxapram on human TASK-1; C) Concentration-effect curve for ketodoxapram on human TASK-1; […] E) Inhibition of TASK-1 by doxapram, ketodoxapnram, and mixtures thereof. The ion channels TASK-1 ([…].1), Kv4.3, Kv1.5, Kv2.1, Kir3.1/4, Kv1.4 are predominantly expressed in the atrial myocardium. The ion channel TASK-3 ([…].1) is not expressed in the human myocardium but structurally related to TASK-1 (Schmidt C et al. (2015), Circulation 132(2): 82). Ion channel current inhibition was measured in Xenopus laevis oocytes (FIG. 1 D)).

[8] = oral administration of enteric-coated doxapram; cited from earlier work
[9] = Pharmacokinetics in a horse after three intravenous doses of doxapram; type: in vivo; details: FIG. 11
Procedure: FIG. 11: Pharmacokinetics of doxapram and its metabolite ketodoxapram in a horse after three intravenous administrations of doxapram.
Three intravenous doses of doxapram were administered to a horse.

[10] = iv, Brain concentration as percentage of plasma concentration
[11] = average of pigs 98, 99, 100, plasma
[12] = average of pigs 98, 99, 100, plasma, read-out: T1/2 (converted)
[13] = pig 98, plasma, read-out: T1/2 (converted)
[14] = pig 99, plasma, read-out: T1/2 (converted)
[15] = pig 100, plasma, read-out: T1/2 (converted)
[16] = pigs, summary of Table 1, read-out: Elimination half-life
[17] = Xenopus laevis oocytes, FIG. 1D
[18] = intravenous 1.8 mg per kg body weight
[19] = intravenous 0.5 mg per kg body weight

Row | SMILES | Central nervous adverse effects [1] | Plasma concentrations of doxapram and ketodoxapram relative to each other [2] | Tmax ([3]; pig 98, plasma) [h] | AUCextra [3, 11] [%] | AUCextra ([3]; pig 98, plasma) [%] | AUCextra ([3]; pig 99, plasma) [%] | AUCextra ([3]; pig 100, plasma) [%] | AUC(0-inf) [3, 11] [ng·h/mL] | Cmax [3, 11] [ng/mL] | AUC [3, 11] [ng·h/mL] | half-life [3, 12] [h] | AUC(0-inf) ([3]; pig 98, plasma) [ng·h/mL] | Cmax ([3]; pig 98, plasma) [ng/mL] | AUC ([3]; pig 98, plasma) [ng·h/mL] | half-life [3, 13] [h] | AUC(0-inf) ([3]; pig 99, plasma) [ng·h/mL] | Cmax ([3]; pig 99, plasma) [ng/mL] | AUC ([3]; pig 99, plasma) [ng·h/mL] | half-life [3, 14] [h] | AUC(0-inf) ([3]; pig 100, plasma) [ng·h/mL] | other results
1 | CCN1CC(CCN2CCOCC2)C(c2ccccc2)(c2ccccc2)C1=O (stereo not drawn) [doxapram, 1-ethyl-4-(2-morpholin-4-ylethyl)-3,3-diphenyl-pyrrolidin-2-one] | clear signs of central nervous adverse effects | similar | 0 | 0.80 | 0.61 | 1.53 | 0.26 | 2950 | 4090 | 2930 | 2.12 | 2200 | 2310 | 2180 | 1.92 | 3180 | 5060 | 3130 | 2.65 | 3480 | Accumulation in the brain relative to ketodoxapram ([2]; iv): 60-500 times; Detection of doxapram after ketodoxapram administration ([2]; iv): not detected; Kp [2, 10]: 0.0024; Kp at 30 min [2, 10]: 0.001; Metabolism of doxapram in pigs ([3]; doxapram 1.8 mg/kg body weight, plasma samples, FIG. 3): rapidly metabolized to ketodoxapram; Cmax ([3]; pig 100, plasma): 4900 ng/mL; AUC ([3]; pig 100, plasma): 3470 ng·h/mL; half-life [3, 15]: 1.79 h; half-life [3, 16]: 2 to 3 h; Most strongly inhibited ion channel among TASK-1, TASK-3, Kv4.3, Kv1.5, Kv2.1, Kir3.1/4, Kv1.4 [4, 17]: TASK-1 was the most strongly inhibited ion channel; Competition between ketodoxapram and doxapram at TASK-1 [4]: replaced at the ion channel by ketodoxapram; pIC50 ([4]; Xenopus laevis oocytes): 6.30; Cardioversion of persistent atrial fibrillation [5, 18]: sufficient for cardioversion in all tested animals; Time to cardioversion to sinus rhythm after injection, on average [5, 18]: 3 min; Course of plasma trough concentrations [6]: initial accumulation phase; Inhibition of ion channel Kv1.5 [7]: not inhibited; Concentrations of doxapram and ketodoxapram in plasma relative to each other [8]: about equal
2 | CCN1CC(CCN2CCOCC2=O)C(c2ccccc2)(c2ccccc2)C1=O (stereo not drawn) [ketodoxapram, 4-(2-(1-ethyl-5-oxo-4,4-diphenyl-3-pyrrolidinyl)ethyl)-3-morpholinone] | not observed | similar | 1 | 6.99 | 4.65 | 12.36 | 3.96 | 308 | 47.9 | 282 | 2.81 | 157 | 31.8 | 149 | 2.59 | 504 | 63.5 | 442 | 3.48 | 265 | Concentration in brain tissue compared with doxapram in the same tissue [2]: several orders of magnitude lower; Crossing of the blood-brain barrier compared with doxapram [2]: much less effectively than doxapram; Brain concentration as percentage of the corresponding doxapram concentration ([2]; iv): 0.2-1.7%; Cmax ([3]; pig 100, plasma): 48.3 ng/mL; AUC ([3]; pig 100, plasma): 254 ng·h/mL; half-life [3, 15]: 2.36 h; half-life [3, 16]: 2 to 3 h; Initial metabolite accumulation phase [9]: 4 to 5 days; Plasma concentration as percentage of parent compound doxapram [9]: about 10%; Effect on TASK-1 compared with doxapram [4, 17]: significantly stronger than the effect of doxapram; Most strongly inhibited ion channel among TASK-1, TASK-3, Kv4.3, Kv1.5, Kv2.1, Kir3.1/4, Kv1.4 [4, 17]: TASK-1 was the most strongly inhibited ion channel; Competition between ketodoxapram and doxapram at TASK-1 [4]: stronger affinity to TASK-1; pIC50 ([4]; Xenopus laevis oocytes): 5.90; Cardioversion of persistent atrial fibrillation [5, 19]: sufficient for cardioversion in all tested animals; Time to cardioversion to sinus rhythm after injection, on average [5, 19]: 3 min; Course of plasma trough concentrations [6]: initial accumulation phase; Inhibition of ion channel Kv1.5 [7]: not inhibited; Concentrations of doxapram and ketodoxapram in plasma relative to each other [8]: about equal
